# In US20090186767A1, “Use of surfactants for mitigating damage to plants from pests” (Cleareso, LLC, priority 2008, published 2009):
# “Also recorded” adds a separate entry of the source.
# How the values were obtained:
# [1] = tested on: larvae of the root weevil, Diaprepes abbreviatus; assay: Immersion of root weevil larvae in test solutions (Example 1); assay type: in vivo; conditions: for Judgement of toxicity to larvae: 0.1 to 5.0% treatments, test terminated at 24 hours; for Mortality of larvae with individual compounds and formulations: five larvae
# Experimental: The criterion for toxicity with these larvae is the lack of nipping behavior and its consequent black residue from blood loss and the lack of spontaneous movement.
# Experimental Design. Larvae and pupae were received from the Florida Dept. of Agriculture's rearing program in Gainesville, Fla. Larvae were shipped as 50-day larvae (larvae that will pupate in about 10 days). Both larvae and pupae were held at 27° C. in 12 hour cycles of light and dark in their containers as separate individuals until experimentation began.
# In the testing, five larvae or pupae were removed from their rearing cups and placed in a 150 ml glass beaker. In testing the Soy Technologies Manufacturer's Base (SMTB), a 5% solution was mixed in either water or carbonated water by adding 10 ml of SMTB to a 250 ml beaker and then adding water or carbonated water to the 200 ml mark. The solutions were then immediately added to the beaker with the larvae or pupae to cover them. Controls with water or carbonated water alone were also included. There was a single tray of five larvae for each treatment at each time period and a five larvae control for each time period. Larvae were removed and placed on plastic weighing trays after 5, 10, 15, 20, 25, and 30 minutes. At the end of 30 minutes all organisms were assessed for mortality. Trays with larvae were left on the bench tip for 24 hours and then another mortality assessment was made.
# Concentration Series. With the results from the time series above, larvae were held in different concentrations of STMB for 30 minutes. After 30 minutes, solutions were poured off and the trays wiped dry. Assessments were made at 24 or 48 hours with a few assessments at 72 hours dependent on effects. Treatments were: water or carbonated water as controls, and 0.1, 0.5, 1.0, 2.0, 3.0, 4.0 and 5.0% concentrations in either distilled water or carbonated water. Five larvae were used for each control and treatment. Pupae were not used in this assessment.
# [2] = Solubility of test preparations in water (Example 1); assay type: physicochemical; conditions: concentration stated in the value
# [3] = tested on: tomato root galling by M. javanica; conditions: in vivo; cited from earlier work
# [4] = tested on: second stage juveniles of Meloidognye hapla; conditions: cited from earlier work; for Toxicity to nematodes: in vivo; for Toxicity to second stage juveniles: 24 hours at a concentration of 50 ppm
# [5] = concentration 0.1 percent, 24 hours
# [6] = concentration 1.0 percent, 24 hours
# [7] = concentration 3.0 percent, 24 hours
# [8] = concentration 5.0 percent, 24 hours
# [9] = concentration 0.1 percent, 48 hours
# [10] = concentration 0.1 percent, 72 hours
# [11] = concentration 1.0 percent, 48 hours
# [12] = concentration 1.0 percent, 72 hours
# [13] = concentration 3.0 percent, 48 hours
# [14] = concentration 3.0 percent, 72 hours
# [15] = concentration 5.0 percent, 48 hours
# [16] = concentration 5.0 percent, 72 hours
compound,measurement,setting,value
"COC(=O)CCC(=O)OC [106-65-0, butanedioic acid, dimethyl ester]",Judgement of toxicity to larvae,[1],judged to be non-toxic
same,Mortality of larvae with individual compounds and formulations,[1]; [5],2
same,Mortality of larvae with individual compounds and formulations,[1]; [6],2
same,Mortality of larvae with individual compounds and formulations,[1]; [7],1
same,Mortality of larvae with individual compounds and formulations,[1]; [8],1
same,Solubility of the preparation,[2]; listed as Dimethyl succinate,The 3% and 5% concentrations were not soluble; also recorded: the 1.0% appears to be just soluble; also recorded: The 0.1% was soluble
"COC(=O)CCCCC(=O)OC [627-93-0, Dimethyl hexanedioate]",Judgement of toxicity to larvae,[1],judged non-toxic
same,Mortality of larvae with individual compounds and formulations,[1]; [5],2
same,Mortality of larvae with individual compounds and formulations,[1]; [6],1
same,Mortality of larvae with individual compounds and formulations,[1]; [7],2
same,Mortality of larvae with individual compounds and formulations,[1]; [8],3
same,Solubility of the preparation,[2]; listed as Dimethyladipate,"Preparations of 1.0, 3.0, and 5.0% concentration were not completely soluble; also recorded: The 0.1% preparation was soluble"
"COC(=O)CCCC(=O)OC [1119-40-0, pentanedioic acid, dimethyl ester]",Mortality of larvae with individual compounds and formulations,[1]; [9],3
same,Mortality of larvae with individual compounds and formulations,[1]; [10],3
same,Mortality of larvae with individual compounds and formulations,[1]; [11],1
same,Mortality of larvae with individual compounds and formulations,[1]; [12],2
same,Mortality of larvae with individual compounds and formulations,[1]; [13],0
same,Mortality of larvae with individual compounds and formulations,[1]; [14],0
same,Mortality of larvae with individual compounds and formulations,[1]; [15],1
same,Mortality of larvae with individual compounds and formulations,[1]; [16],2
CCCCCCCCC(=O)OC [Methyl perlargonate],Concentration producing reduced galling of plants,[3],0.8 microliters/liter
CCCCCCCC/C=C\CCCCCCCC(=O)O [Oleic acid],Toxicity to nematodes,[4],relatively nontoxic
CCCCCCCCCC(=O)O [decanoic acid],Toxicity to second stage juveniles,[4],killed all second stage juveniles
CCCCCCCC/C=C\CCCCCCCC(=O)[O-].[K+] [potassium oleate],Toxicity to nematodes,[4],relatively nontoxic
CCCCCCCCCCC(=O)O [undecanoic acid],Toxicity to second stage juveniles,[4],killed all second stage juveniles
Polyoxyethylene 10 tridecylether [24938-91-8],Mortality of larvae with individual compounds and formulations,[1]; [5],0
same,Mortality of larvae with individual compounds and formulations,[1]; [9],0
same,Mortality of larvae with individual compounds and formulations,[1]; [10],0
same,Mortality of larvae with individual compounds and formulations,[1]; [6],2
same,Mortality of larvae with individual compounds and formulations,[1]; [11],2
same,Mortality of larvae with individual compounds and formulations,[1]; [12],2
same,Mortality of larvae with individual compounds and formulations,[1]; [7],0
same,Mortality of larvae with individual compounds and formulations,[1]; [13],0
same,Mortality of larvae with individual compounds and formulations,[1]; [14],0
same,Mortality of larvae with individual compounds and formulations,[1]; [8],0
same,Mortality of larvae with individual compounds and formulations,[1]; [15],3
same,Mortality of larvae with individual compounds and formulations,[1]; [16],3
glycol pelargonate,Concentration producing reduced galling of plants,[3],6.4 microliters/liter
